# Counter-ions that a name gives are not always drawn.
# Target: T1, G9a (Homo sapiens, UniProt Q96KQ7)
# T1 sequence (Q96KQ7 1-1210): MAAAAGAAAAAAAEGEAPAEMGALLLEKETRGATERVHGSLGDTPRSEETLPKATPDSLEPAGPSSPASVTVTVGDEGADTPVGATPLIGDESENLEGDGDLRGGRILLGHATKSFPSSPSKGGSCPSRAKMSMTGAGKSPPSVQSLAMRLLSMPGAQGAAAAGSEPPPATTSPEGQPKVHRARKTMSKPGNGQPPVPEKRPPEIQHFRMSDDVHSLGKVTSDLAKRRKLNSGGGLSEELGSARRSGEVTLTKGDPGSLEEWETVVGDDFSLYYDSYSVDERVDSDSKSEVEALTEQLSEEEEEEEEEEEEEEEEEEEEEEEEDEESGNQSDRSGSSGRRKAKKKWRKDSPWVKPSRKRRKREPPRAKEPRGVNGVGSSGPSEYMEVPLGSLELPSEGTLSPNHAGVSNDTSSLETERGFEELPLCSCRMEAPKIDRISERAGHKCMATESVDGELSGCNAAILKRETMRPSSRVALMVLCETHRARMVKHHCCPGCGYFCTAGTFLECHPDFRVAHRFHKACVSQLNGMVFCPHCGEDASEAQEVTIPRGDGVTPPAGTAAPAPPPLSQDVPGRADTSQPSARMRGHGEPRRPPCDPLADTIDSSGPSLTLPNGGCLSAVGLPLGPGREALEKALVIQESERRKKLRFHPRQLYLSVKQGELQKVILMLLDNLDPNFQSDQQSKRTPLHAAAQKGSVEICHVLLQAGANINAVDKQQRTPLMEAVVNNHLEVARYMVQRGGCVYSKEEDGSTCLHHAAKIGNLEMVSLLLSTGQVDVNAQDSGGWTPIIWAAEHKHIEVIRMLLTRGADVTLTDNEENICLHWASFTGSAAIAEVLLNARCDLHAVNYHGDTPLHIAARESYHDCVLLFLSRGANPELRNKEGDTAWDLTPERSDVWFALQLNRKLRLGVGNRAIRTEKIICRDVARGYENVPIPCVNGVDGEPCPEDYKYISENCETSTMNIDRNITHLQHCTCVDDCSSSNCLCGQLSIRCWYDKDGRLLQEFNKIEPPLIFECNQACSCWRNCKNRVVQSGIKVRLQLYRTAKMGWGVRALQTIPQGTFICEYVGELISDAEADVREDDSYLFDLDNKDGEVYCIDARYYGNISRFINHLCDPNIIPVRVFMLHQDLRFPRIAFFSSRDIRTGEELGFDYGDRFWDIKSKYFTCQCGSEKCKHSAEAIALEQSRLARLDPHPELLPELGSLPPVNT
# Experiment: G9a AlphaLISA enzymatic activity assay
# Type: biochemical
# Conditions: 0.15 nM G9a, 15 uM S-adenosyl-methionine, 100 nM biotinylated histone 3 peptide (1-21), 1 hour at room temperature; read-out: G9a in (uM) (IC50, concentration that produced 50% inhibition)
# Summary of the method: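 Human G9a (0.15 nM) methylated 100 nM biotinylated histone H3(1-21) peptide with 15 uM SAM in Tris-HCl pH9 buffer with NaCl, Tween-20 and DTT, 1 h at room temperature. H3K9me2 was detected by AlphaLISA acceptor/streptavidin donor beads (20 ug/mL each); IC50 from percent inhibition across compound dilutions.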
row,Compound,IC50
1,"CC[C@H](C)Nc1nc2cc(OCCCN3CCCC3)c(OC)cc2c2c1CCC2 [Example 99, N-[(2S)-butan-2-yl]-8-methoxy-7-[3-(pyrrolidin-1-yl)propoxy]-1H,2H,3H-cyclopenta[c]quinolin-4-amine formate]",0.023 µM
2,"COc1cc2c3c(c(NCCc4ccccc4)nc2cc1OCCCN1CCCC1)CCC3 [Example 5, 8-methoxy-N-(2-phenylethyl)-7-[3-(pyrrolidin-1-yl)propoxy]-1H,2H,3H-cyclopenta[c]quinolin-4-amine trifluoroacetate]",0.15 µM
3,"COc1cc2c3c(c(NC4CCN(C(C)C)CC4)nc2cc1OCCCN1CCCC1)CCCC3 [Example 39, 2-methoxy-N-[1-(propan-2-yl)piperidin-4-yl]-3-[3-(pyrrolidin-1-yl)propoxy]-7,8,9,10-tetrahydrophenanthridin-6-amine trifluoroacetate]",3 µM
4,"COc1cc2c3c(c(N[C@H](C)C4CC4)nc2cc1OCCCN1CCCC1)CCC3 [Example 89, N-[(1R)-1-cyclopropylethyl]-8-methoxy-7-[3-(pyrrolidin-1-yl)propoxy]-1H,2H,3H-cyclopenta[c]quinolin-4-amine formate]",0.14 µM
5,"COc1cc2c3c(c(NCC(F)(F)F)nc2cc1OCCCN1CCCC1)CCCC3 [Example 67, 2-methoxy-3-[3-(pyrrolidin-1-yl)propoxy]-N-(2,2,2-trifluoroethyl)-7,8,9,10-tetrahydrophenanthridin-6-amine formate]",2 µM
6,"CNc1nc2cc(OCCCN3CCCC3)c(OC)cc2c2c1CCN2 [Example 22, 8-methoxy-N-methyl-7-[3-(pyrrolidin-1-yl)propoxy]-1H,2H,3H-pyrrolo[3,2-c]quinolin-4-amine trifluoroacetate]",0.003 µM
7,"COc1cc2c3c(c(NC(C)(C)C)nc2cc1OCCCN1CCCC1)CCC3 [Example 94, N-tert-butyl-8-methoxy-7-[3-(pyrrolidin-1-yl)propoxy]-1H,2H,3H-cyclopenta[c]quinolin-4-amine formate]",1.4 µM
8,"COc1cc2nc(NC(C)C)c3c(c2cc1OCCCN1CCCC1)COC3 [Example 45, 7-methoxy-N-(propan-2-yl)-8-[3-(pyrrolidin-1-yl)propoxy]-1H,3H-furo[3,4-c]quinolin-4-amine]",4.3 µM
9,"CCCCNc1nc2cc(OCCCN3CCCC3)c(OC)cc2c2c1CC(C)(C)C2 [Example 91, N-butyl-8-methoxy-2,2-dimethyl-7-[3-(pyrrolidin-1-yl)propoxy]-1H,2H,3H-cyclopenta[c]quinolin-4-amine formate]",0.007 µM
10,"COc1cc2c3c(c(NC4CC4)nc2cc1OCCCN1CCCC1)COC3 [Example 48, N-cyclopropyl-8-methoxy-7-[3-(pyrrolidin-1-yl)propoxy]-1H,3H-furo[3,4-c]quinolin-4-amine]",0.97 µM
11,"COc1cc2c3c(c(NCC4CC4)nc2cc1OCCCN1CCCC1)CCC3 [Example 108, N-(cyclopropylmethyl)-8-methoxy-7-[3-(pyrrolidin-1-yl)propoxy]-1H,2H,3H-cyclopenta[c]quinolin-4-amine trifluoroacetate]",0.037 µM
12,"COc1cc2c3c(cnc2cc1OCCCN1CCCC1)CCC3 [Example 21, 1-[3-({8-methoxy-1H,2H,3H-cyclopenta[c]quinolin-7-yl}oxy)propyl]pyrrolidine trifluoroacetate]",0.62 µM
13,"COc1cc2c3c(c(N[C@H]4CCC[C@@H]4O)nc2cc1OCCCN1CCCC1)CCC3 [Example 124, (1S,25)-2-({8-methoxy-7-[3-(pyrrolidin-1-yl)propoxy]-1H,2H,3H-cyclopenta[c]quinolin-4-yl}amino)cyclopentan-1-ol formate]",4.7 µM
14,"COc1cc2c3c(c(NCC(C)(C)C)nc2cc1OCCCN1CCCC1)CCC3 [Example 101, N-(2,2-dimethylpropyl)-8-methoxy-7-[3-(pyrrolidin-1-yl)propoxy]-1H,2H,3H-cyclopenta[c]quinolin-4-amine formate]",0.07 µM
15,"CNc1nc2cc(OCCCN3CCCC3)c(OC)cc2c2c1CC(C)(C)N2 [Example 24, 8-methoxy-N,2,2-trimethyl-7-[3-(pyrrolidin-1-yl)propoxy]-1H,2H,3H-pyrrolo[3,2-c]quinolin-4-amine trifluoroacetate]",0.006 µM
16,"COc1cc2c3c(c(NC(C)C)nc2cc1OCCCN1CCCC1)COC3 [Example 46, 8-methoxy-N-(propan-2-yl)-7-[3-(pyrrolidin-1-yl)propoxy]-1H,3H-furo[3,4-c]quinolin-4-amine]",0.26 µM
17,"COc1cc2c3c(c(NC(C)C)nc2cc1OCCCN1CCCC1)CCCC3 [Example 13, 2-methoxy-N-(propan-2-yl)-3-[3-(pyrrolidin-1-yl)propoxy]-7,8,9,10-tetrahydrophenanthridin-6-amine formate]",0.042 µM
18,"CCN(CC)CCCOc1cc2nc(NC(C)C)c3c(c2cc1OC)CCC3 [Example 93, 7-[3-(diethylamino)propoxy]-8-methoxy-N-(propan-2-yl)-1H,2H,3H-cyclopenta[c]quinolin-4-amine formate]",0.39 µM
19,"COc1cc2c3c(cnc2cc1OCCCN1CCCC1)CCCC3 [Example 40, 2-methoxy-3-[3-(pyrrolidin-1-yl)propoxy]-7,8,9,10-tetrahydrophenanthridine trifluoroacetate]",1.3 µM
20,"CNc1nc2cc(OCCCN3CCCC3)c(OC)cc2c2c1CC(O)CC2 (centres unmarked) [Example 61, 2-methoxy-6-(methylamino)-3-[3-(pyrrolidin-1-yl)propoxy]-7,8,9,10-tetrahydrophenanthridin-8-ol formate]",0.14 µM
21,"COc1cc2c3c(c(NC(C)C)nc2cc1OCCCN1CCCC1)CC(O)CC3 (centres unmarked) [Example 68, 2-methoxy-6-[(propan-2-yl)amino]-3-[3-(pyrrolidin-1-yl)propoxy]-7,8,9,10-tetrahydrophenanthridin-8-ol trifluoroacetate]",0.11 µM
22,"CNc1nc2cc(OCCCN3CCCC3)c(OC)cc2c2c1CCCCN2 [Example 33, 10-methoxy-N-methyl-9-[3-(pyrrolidin-1-yl)propoxy]-1H,2H,3H,4H,5H-azepino[3,2-c]quinolin-6-amine formate]",0.012 µM
23,"COc1cc2c3c(c(NC(C)C)nc2cc1OCCCN1CCCC1)CCN3 [Example 23, 8-methoxy-N-(propan-2-yl)-7-[3-(pyrrolidin-1-yl)propoxy]-1H,2H,3H-pyrrolo[3,2c]-quinolin-4-amine trifluoroacetate]",0.003 µM
